Measurements from ChEMBL document CHEMBL1201862, “PubChem BioAssay data set” (2004).
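Test compounds were applied to cells in 96-well plates for 48 hours at 5 doses. Here, GI50 denotes the concentration required for 50% inhibition of growth.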 Active and inactive are the calls of the source. No stated cut-off is given here; in the data, active = GI50 up to about 1.1 µM and inactive = higher.

Experiments:
Experiment in all cases: DTP human tumour cell line panel, 48 h
[1] = system: PC-3
[2] = system: MOLT-4
[3] = system: A498
[4] = system: Malme-3M
[5] = system: SF-268
[6] = system: SW-620
[7] = system: UACC-257
[8] = system: OVCAR-3
[9] = system: CCRF-CEM
[10] = system: MDA-MB-435
[11] = system: HL-60
[12] = system: LOX IMVI
[13] = system: M14
[14] = system: NCI-H23
[15] = system: SK-OV-3
[16] = system: SF-295
[17] = system: KM12
[18] = system: COLO 205
[19] = system: HCC 2998

Structure (SMILES)	GI50 [1]	GI50 [2]	GI50 [3]	GI50 [4]	GI50 [5]	GI50 [6]	GI50 [7]	GI50 [8]	GI50 [9]	GI50 [10]	GI50 [11]	GI50 [12]	GI50 [13]	GI50 [14]	GI50 [15]	GI50 [16]	GI50 [17]	GI50 [18]	GI50 [19]
CN(C)c1nc(NC23CC4CC(CC(C4)C2)C3)nc(N(C)C)n1	8.32 µM (inactive)	10 µM (inactive)	> 54 µM (inactive)	33.1 µM (inactive)	> 42.1 µM (inactive)	12.3 µM (inactive)	31.3 µM (inactive)	17.2 µM (inactive)	5.06 µM (inactive)	21.4 µM (inactive)	3.61 µM (inactive)	3.36 µM (inactive)	13.1 µM (inactive)	9.33 µM (inactive)	> 26.1 µM (inactive)	6.28 µM (inactive)	5.66 µM (inactive)	11.7 µM (inactive)	> 27.5 µM (inactive)
O=[N+]([O-])c1ccc(Cl)cc1/C=N/C12CC3CC(CC(C3)C1)C2	35.9 µM (inactive)	18.5 µM (inactive)	> 100 µM (inactive)	43.6 µM (inactive)	50.2 µM (inactive)	22 µM (inactive)	> 31.6 µM (inactive)	46.9 µM (inactive)	5.64 µM (inactive)	47.6 µM (inactive)	5.77 µM (inactive)	19.6 µM (inactive)	45.5 µM (inactive)	50.9 µM (inactive)	> 100 µM (inactive)	57.3 µM (inactive)	29 µM (inactive)	45 µM (inactive)	> 82.4 µM (inactive)
Cc1nnc(N)nc1/C=C\c1cccs1	17.2 µM (inactive)	32.3 µM (inactive)	22 µM (inactive)	13.4 µM (inactive)	19.5 µM (inactive)	25.5 µM (inactive)	32.6 µM (inactive)		16.7 µM (inactive)	18 µM (inactive)	6.11 µM (inactive)	29.6 µM (inactive)	16.2 µM (inactive)	17.6 µM (inactive)	36.5 µM (inactive)	21.4 µM (inactive)	16.8 µM (inactive)	27.7 µM (inactive)	14.6 µM (inactive)
COC(=O)CCNC(=O)OCc1ccccc1	> 100 µM (inactive)	> 100 µM (inactive)	> 100 µM (inactive)	> 100 µM (inactive)	> 100 µM (inactive)	> 100 µM (inactive)	> 100 µM (inactive)	> 100 µM (inactive)	> 100 µM (inactive)	> 100 µM (inactive)	> 100 µM (inactive)	> 100 µM (inactive)	> 100 µM (inactive)	> 100 µM (inactive)	> 100 µM (inactive)	> 100 µM (inactive)	> 100 µM (inactive)	> 100 µM (inactive)	> 100 µM (inactive)
CC1(C)NC2C(=O)c3c([nH]c4ccccc34)[C@]3(C)CCC1CC23 (stereo not given in full)	> 100 µM (inactive)	59.4 µM (inactive)	> 100 µM (inactive)	> 100 µM (inactive)	> 100 µM (inactive)	> 100 µM (inactive)	> 100 µM (inactive)	> 100 µM (inactive)	> 100 µM (inactive)	> 100 µM (inactive)	> 100 µM (inactive)	> 100 µM (inactive)		> 100 µM (inactive)		> 100 µM (inactive)	> 100 µM (inactive)	> 100 µM (inactive)	> 100 µM (inactive)
Nc1nc(Sc2ccc([N+](=O)[O-])c3nonc23)c2nc[nH]c2n1	3.34 µM (inactive)	0.301 µM (active)	13.7 µM (inactive)	1.02 µM (active)	0.681 µM (active)	1.01 µM (active)	2.13 µM (inactive)	0.624 µM (active)	0.191 µM (active)	0.59 µM (active)	1.71 µM (inactive)	0.232 µM (active)	0.363 µM (active)	2.25 µM (inactive)	0.425 µM (active)	0.701 µM (active)	3.21 µM (inactive)	1.61 µM (inactive)	1.08 µM (active)
Nc1ncnc2c1ccn2C/C=C\CO	> 100 µM (inactive)	85.9 µM (inactive)	> 100 µM (inactive)	> 100 µM (inactive)	> 100 µM (inactive)	> 100 µM (inactive)	> 100 µM (inactive)	> 100 µM (inactive)	> 100 µM (inactive)	> 100 µM (inactive)	> 100 µM (inactive)	> 100 µM (inactive)	> 100 µM (inactive)	> 100 µM (inactive)	> 100 µM (inactive)	> 100 µM (inactive)	> 100 µM (inactive)	> 100 µM (inactive)	> 100 µM (inactive)
CO/C(N)=C(C#N)/N=C/c1cccs1	> 100 µM (inactive)	62.8 µM (inactive)	33.2 µM (inactive)	35.3 µM (inactive)	> 100 µM (inactive)	68.1 µM (inactive)	32.5 µM (inactive)	49.8 µM (inactive)	66.4 µM (inactive)	25.8 µM (inactive)	22 µM (inactive)	42.6 µM (inactive)	41.2 µM (inactive)	> 100 µM (inactive)	> 100 µM (inactive)	> 100 µM (inactive)	> 100 µM (inactive)	36.6 µM (inactive)	> 100 µM (inactive)
CCOC(=O)OC1(c2ccccc2)CCN(C)CC1	> 100 µM (inactive)	> 100 µM (inactive)	> 100 µM (inactive)	> 100 µM (inactive)	> 100 µM (inactive)	> 100 µM (inactive)	> 100 µM (inactive)	> 100 µM (inactive)	> 100 µM (inactive)	> 100 µM (inactive)	> 100 µM (inactive)	> 100 µM (inactive)	> 100 µM (inactive)	> 100 µM (inactive)	> 100 µM (inactive)	> 100 µM (inactive)	> 100 µM (inactive)	> 100 µM (inactive)	> 100 µM (inactive)
CC(C)n1c2c(c3ccccc3c1=O)C(=O)c1ccccc1-2	> 100 µM (inactive)	> 100 µM (inactive)	> 100 µM (inactive)	> 100 µM (inactive)	> 100 µM (inactive)	> 100 µM (inactive)	> 100 µM (inactive)	> 100 µM (inactive)	> 100 µM (inactive)	> 100 µM (inactive)	> 100 µM (inactive)	> 100 µM (inactive)	> 100 µM (inactive)	> 100 µM (inactive)	> 100 µM (inactive)	> 100 µM (inactive)	> 100 µM (inactive)	> 100 µM (inactive)	> 100 µM (inactive)
Nc1ccn(C2OC(COP(=O)(O)OCC3OC(n4cc(F)c(=O)[nH]c4=O)CC3O)C(O)C2O)c(=O)n1 (stereo not given)	> 100 µM (inactive)	0.0575 µM (active)	0.225 µM (active)	3.07 µM (inactive)	< 0.01 µM (active)	> 100 µM (inactive)	> 21.5 µM (inactive)	> 100 µM (inactive)	0.0161 µM (active)	1.58 µM (inactive)	0.237 µM (active)	0.0353 µM (active)	0.183 µM (active)	0.314 µM (active)	26.7 µM (inactive)	0.0453 µM (active)	> 100 µM (inactive)	4.68 µM (inactive)	87.9 µM (inactive)
CC12CCC(C(Br)(Br)C1=O)C2(C)C (stereo not given)	1.07 µM (active)	0.091 µM (active)	3.68 µM (inactive)	0.056 µM (active)	0.0989 µM (active)	< 0.0476 µM (active)	2.74 µM (inactive)	0.507 µM (active)	< 0.0166 µM (active)	0.0942 µM (active)	< 0.0148 µM (active)	0.611 µM (active)	0.125 µM (active)	0.123 µM (active)	1.51 µM (inactive)	3.49 µM (inactive)	2.77 µM (inactive)	3.01 µM (inactive)	2.28 µM (inactive)
OC(c1cc(-c2ccccc2)nc2c1ccc1ccccc12)C1CCCCN1 (stereo not given)	1.71 µM (inactive)	2.18 µM (inactive)	1.92 µM (inactive)	1.38 µM (inactive)	1.43 µM (inactive)	1.78 µM (inactive)	1.82 µM (inactive)	1.84 µM (inactive)	0.0473 µM (active)	1.83 µM (inactive)	0.855 µM (active)	1.11 µM (active)	1.73 µM (inactive)	1.95 µM (inactive)	1.88 µM (inactive)	1.97 µM (inactive)	1.86 µM (inactive)	1.95 µM (inactive)	0.59 µM (active)
CO[C@@H]1C[C@H]2[C@@H]3CC[C@H]([C@@H](C)COC(C)=O)[C@@]3(C)CC[C@@H]2[C@@]2(C)CC[C@H]3C[C@]312	15.2 µM (inactive)	15.3 µM (inactive)	20 µM (inactive)	16 µM (inactive)	17.9 µM (inactive)	11.8 µM (inactive)	11.6 µM (inactive)	14.6 µM (inactive)	14.9 µM (inactive)	15.1 µM (inactive)	3.89 µM (inactive)	11.4 µM (inactive)	16.9 µM (inactive)	12.8 µM (inactive)		15.1 µM (inactive)	11.1 µM (inactive)	0.879 µM (active)	15.1 µM (inactive)
O=C(O)C1CCCN1C(=O)c1cc(Cl)ccn1 (stereo not given)	> 100 µM (inactive)	> 100 µM (inactive)	> 100 µM (inactive)	> 100 µM (inactive)	> 100 µM (inactive)	> 100 µM (inactive)	> 100 µM (inactive)	> 100 µM (inactive)	> 100 µM (inactive)	> 100 µM (inactive)	> 100 µM (inactive)	> 100 µM (inactive)	> 100 µM (inactive)	> 100 µM (inactive)		> 100 µM (inactive)	> 100 µM (inactive)	> 100 µM (inactive)	> 100 µM (inactive)
